Laboratory results reported in ChEMBL document CHEMBL1201862, “PubChem BioAssay data set” (2004).
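Interpolation was linear, between the two tested concentrations surrounding the appropriate level; five concentrations were tested over 48 hours in 96-well plates. GI50 = concentration required for 50% inhibition of growth.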 Calls of active or inactive are those of the source. No stated cut-off is given here; in the data, active = GI50 up to about 1.1 µM and inactive = higher.

Assays:
Assay in all cases: growth of human tumour cells (NCI), 48 h
786-0 = test system: 786-0
A498 = test system: A498
A549 = test system: A549
ACHN = test system: ACHN
CCRF-CEM = test system: CCRF-CEM
COLO 205 = test system: COLO 205
DLD-1 = test system: DLD-1
DMS-114 = test system: DMS-114
DMS-273 = test system: DMS-273
EKVX = test system: EKVX
HCT-116 = test system: HCT-116
HCT-15 = test system: HCT-15
HL-60 = test system: HL-60
HOP-18 = test system: HOP-18
HOP-62 = test system: HOP-62
HOP-92 = test system: HOP-92
HT-29 = test system: HT-29
IGROV-1 = test system: IGROV-1
K562 = test system: K562
KM-20L2 = test system: KM-20L2
KM12 = test system: KM12
LOX IMVI = test system: LOX IMVI
LXFL 529 = test system: LXFL 529
M14 = test system: M14
M19-MEL = test system: M19-MEL
MOLT-4 = test system: MOLT-4
Malme-3M = test system: Malme-3M
NCI-H226 = test system: NCI-H226
NCI-H23 = test system: NCI-H23
NCI-H460 = test system: NCI-H460
OVCAR-3 = test system: OVCAR-3
OVCAR-4 = test system: OVCAR-4
OVCAR-5 = test system: OVCAR-5
OVCAR-8 = test system: OVCAR-8
RPMI-8226 = test system: RPMI-8226
RXF 631 = test system: RXF 631
SF-295 = test system: SF-295
SF-539 = test system: SF-539
SK-MEL-28 = test system: SK-MEL-28
SK-MEL-2 = test system: SK-MEL-2
SK-MEL-5 = test system: SK-MEL-5
SK-OV-3 = test system: SK-OV-3
SN12C = test system: SN12C
SNB-19 = test system: SNB-19
SNB-75 = test system: SNB-75
SNB-78 = test system: SNB-78
SR = test system: SR
SW-620 = test system: SW-620
TK-10 = test system: TK-10
U-251 = test system: U-251
UACC-257 = test system: UACC-257
UACC-62 = test system: UACC-62
UO-31 = test system: UO-31
XF498 = test system: XF498
CAKI-1 = test system: CAKI-1
HCC 2998 = test system: HCC 2998
NCI-H522 = test system: NCI-H522
RXF 393 = test system: RXF 393
SF-268 = test system: SF-268

In the case of C=CC(C)(C)[C@@]12CC3C(=O)N[C@@H](Cc4ccccc4)C(=O)N3[C@@H]1N(C(C)=O)c1ccccc12 (some centres undefined), the GI50 (786-0) is reported as > 100 µM (inactive), the GI50 (A498) is reported as > 100 µM (inactive) and the GI50 (A549) is reported as 74.1 µM (inactive). For the same compound, the GI50 (ACHN) was 63.5 µM (inactive), the GI50 (CCRF-CEM) was 57.1 µM (inactive) and the GI50 (COLO 205) was 36.5 µM (inactive). For the same compound, the GI50 (DLD-1) was 66.2 µM (inactive), the GI50 (DMS-114) was 75.3 µM (inactive) and the GI50 (DMS-273) was 61.7 µM (inactive). For the same compound, the GI50 (EKVX) was 96.4 µM (inactive), the GI50 (HCT-116) was > 100 µM (inactive) and the GI50 (HCT-15) was 58.1 µM. For the same compound, the GI50 (HL-60) was 30.3 µM (inactive), the GI50 (HOP-18) was 64 µM (inactive) and the GI50 (HOP-62) was > 100 µM (inactive). The GI50 (HOP-92) was 25.2 µM (inactive), the GI50 (HT-29) was 62.2 µM (inactive) and the GI50 (IGROV-1) was > 100 µM (inactive). For the same compound, the GI50 (K562) was 49.3 µM (inactive), the GI50 (KM-20L2) was > 100 µM (inactive) and the GI50 (KM12) was 77.8 µM (inactive). For the same compound, the GI50 (LOX IMVI) was > 100 µM (inactive), the GI50 (LXFL 529) was 52.6 µM (inactive) and the GI50 (M14) was 57.8 µM (inactive). For the same compound, the GI50 (M19-MEL) was 87.5 µM (inactive), the GI50 (MOLT-4) was 27.4 µM (inactive) and the GI50 (Malme-3M) was > 100 µM (inactive). For the same compound, the GI50 (NCI-H226) was > 100 µM (inactive), the GI50 (NCI-H23) was > 100 µM (inactive) and the GI50 (NCI-H460) was 48.8 µM (inactive). The GI50 (OVCAR-3) was 48.6 µM (inactive), the GI50 (OVCAR-4) was 31.8 µM (inactive) and the GI50 (OVCAR-5) was > 100 µM (inactive). The GI50 (OVCAR-8) was 73.5 µM (inactive), the GI50 (RPMI-8226) was 43.2 µM (inactive) and the GI50 (RXF 631) was 58.7 µM (inactive). The GI50 (SF-295) was 97.3 µM (inactive), the GI50 (SF-539) was > 100 µM (inactive) and the GI50 (SK-MEL-28) was > 100 µM (inactive). For the same compound, the GI50 (SK-MEL-2) was > 100 µM (inactive), the GI50 (SK-MEL-5) was 37.2 µM (inactive) and the GI50 (SK-OV-3) was > 100 µM (inactive). For the same compound, the GI50 (SN12C) was 75.3 µM (inactive), the GI50 (SNB-19) was > 100 µM (inactive) and the GI50 (SNB-75) was 59.8 µM (inactive). The GI50 (SNB-78) was > 100 µM (inactive), the GI50 (SR) was > 100 µM (inactive) and the GI50 (SW-620) was 88.7 µM (inactive). The GI50 (TK-10) was > 100 µM (inactive), the GI50 (U-251) was 93.3 µM (inactive) and the GI50 (UACC-257) was 68.4 µM (inactive). The GI50 (UACC-62) was > 100 µM (inactive), the GI50 (UO-31) was 54.8 µM (inactive) and the GI50 (XF498) was > 100 µM (inactive).
CC(=O)c1cccc(NC(=O)C(=O)C(C(=O)NN)c2ccccc2)c1 (centres undefined) was tested, and the GI50 (786-0) was > 100 µM (inactive), the GI50 (A498) was > 100 µM (inactive) and the GI50 (A549) was > 100 µM (inactive). The GI50 (ACHN) was > 100 µM (inactive), the GI50 (CAKI-1) was > 100 µM (inactive) and the GI50 (CCRF-CEM) was > 100 µM (inactive). For the same compound, the GI50 (COLO 205) was > 100 µM (inactive), the GI50 (DLD-1) was > 100 µM (inactive) and the GI50 (DMS-114) was > 100 µM (inactive). For the same compound, the GI50 (DMS-273) was > 100 µM (inactive), the GI50 (EKVX) was > 100 µM (inactive) and the GI50 (HCC 2998) was 51.6 µM (inactive). The GI50 (HCT-116) was > 100 µM (inactive), the GI50 (HCT-15) was over 100 µM and the GI50 (HOP-18) was 16.5 µM (inactive). For the same compound, the GI50 (HOP-62) was > 100 µM (inactive), the GI50 (HOP-92) was > 100 µM (inactive) and the GI50 (HT-29) was > 100 µM (inactive). For the same compound, the GI50 (IGROV-1) was > 100 µM (inactive), the GI50 (K562) was > 100 µM (inactive) and the GI50 (KM-20L2) was > 100 µM (inactive). For the same compound, the GI50 (KM12) was > 100 µM (inactive), the GI50 (LOX IMVI) was > 100 µM (inactive) and the GI50 (LXFL 529) was > 100 µM (inactive). For the same compound, the GI50 (M14) was > 100 µM (inactive), the GI50 (M19-MEL) was > 100 µM (inactive) and the GI50 (MOLT-4) was > 100 µM (inactive). The GI50 (Malme-3M) was > 100 µM (inactive), the GI50 (NCI-H226) was > 100 µM (inactive) and the GI50 (NCI-H23) was > 100 µM (inactive). For the same compound, the GI50 (NCI-H460) was > 100 µM (inactive), the GI50 (NCI-H522) was > 100 µM (inactive) and the GI50 (OVCAR-3) was > 100 µM (inactive). For the same compound, the GI50 (OVCAR-4) was > 100 µM (inactive), the GI50 (OVCAR-5) was > 100 µM (inactive) and the GI50 (OVCAR-8) was > 100 µM (inactive). The GI50 (RPMI-8226) was > 100 µM (inactive), the GI50 (RXF 393) was > 100 µM (inactive) and the GI50 (RXF 631) was > 100 µM (inactive). The GI50 (SF-268) was > 100 µM (inactive), the GI50 (SF-539) was > 100 µM (inactive) and the GI50 (SK-MEL-28) was > 100 µM (inactive). The GI50 (SK-MEL-2) was > 100 µM (inactive), the GI50 (SK-MEL-5) was > 100 µM (inactive) and the GI50 (SK-OV-3) was > 100 µM (inactive). For the same compound, the GI50 (SN12C) was > 100 µM (inactive), the GI50 (SNB-19) was > 100 µM (inactive) and the GI50 (SNB-75) was > 100 µM (inactive). For the same compound, the GI50 (SW-620) was > 100 µM (inactive), the GI50 (TK-10) was > 100 µM (inactive) and the GI50 (U-251) was > 100 µM (inactive). For the same compound, the GI50 (UACC-257) was > 100 µM (inactive), the GI50 (UACC-62) was > 100 µM (inactive) and the GI50 (UO-31) was > 100 µM (inactive). The GI50 (XF498) was > 100 µM (inactive).
